Data as given in patent US20200246316A1, “METHODS OF TREATING POST-SURGICAL PAIN WITH A THIAZOLINE ANTI-HYPERALGESIC AGENT” (CERSCI THERAPEUTICS, INC., priority 2019, published 2020).
Entries after “also recorded” stand apart in the source; their conditions may differ. Counter-ions that a name gives are not always drawn. Like-named read-outs stand apart in the source and are kept apart here.

Tests used:
[1] = Dog pharmacokinetics after single PO (10 mg/kg) and IV (3 mg/kg) dose; format: in vivo; settings: for bioavailability: 10 mg/kg PO vs 3 mg/kg IV
Experimental: The objective of the first single dose non-GLP study in dogs was to determine the pharmacokinetics and bioavailability of Compound 1 after a single oral (gavage) or single intravenous (IV) dose in dogs. The test article formulation was administered to three male dogs orally via gavage at a dose level of 10 mg/kg (dosing volume of 2 mL/kg body weight). Following a wash-out period of a minimum of three days, the same three dogs were administered the test article formulation via an IV bolus push over approximately 1-2 minutes at a dose level of 3 mg/kg (dosing volume of 0.5 mL/kg). The vehicle for oral gavage dosing was 0.5% HPMC; the vehicle for IV injection was sterile phosphate buffered saline (PBS; pH 7.4). […] Animals were returned to quarantine after the last blood collection.
After IV administration at 3 mg/kg, the test article was quantifiable up to the 4-hour time point for all animals and tmax was about 5 minutes. Since the test article was not quantifiable at the 6-hour and subsequent time points for IV administration, […] and bioavailability could not be calculated.

PN-mediated cytotoxicity = test: Cell-based assays of PN-mediated cytotoxicity
Description: (§1) In cell-based assays of PN-mediated cytotoxicity, Compound 1 is protective. […] Chemically, Compound 1 can also react stoichiometrically with peroxynitrite to form a para-nitro adduct. Without being bound by theory, by targeting and removing peroxynitrite and peroxide, Compound 1 can disrupt the ensuing cascades that lead to hypersensitivity (protein modification, ion channel hyperexcitation) thus providing a long duration event in terms of pain relief.

OATP1B3 = molecular target: T1, OATP1B3 (Homo sapiens, UniProt Q9NPD5); test: Inhibition of uptake (SLC) transporters; format: in vitro ADME
T1 construct: expressed in transfected cells; host or cells: HEK293 cells

[2] = system: STZ-induced mechanical allodynia; test: Streptozotocin (STZ) diabetic neuropathy model; format: in vivo, mice; settings: FIG. 14
Experimental: Streptozotocin (STZ) destroys insulin-producing cells and generates a diabetic phenotype in mice. Animals were dosed with STZ on day −7. By day 0, animals are hyperglycemic and hyperalgesic (day 0 BL).

[3] = system: rat models of diabetic neuropathy; test: Rat models of diabetic neuropathy (streptozotocin- and methylglyoxal-induced); format: in vivo; settings: mono-hydrochloride
Description: In various embodiments, Compound 1 is efficacious in in vivo animal models of acute post-incisional hyperalgesia, both prophylactically and palliatively. […] In various embodiments, less than about 1%, 0.8%, 0.6%, 0.4%, 0.2%, 0.1%, 0.08%, 0.06%, 0.04%, 0.02%, or 0.01% of Compound 1 in blood plasma penetrates the BBB.

mouse incisional model = test: Mouse incisional model (mimicking the Brennan protocol); format: in vivo; settings: 10 mg/kg IP QD, Days 1 and 3 after incision
Experimental: In a mouse incisional model (mimicking the Brennan protocol), animals were baselined for mechanical thresholds prior to incision and then given a daily dose of Compound 1 (10 mg/kg IP QD) or vehicle for 7 days.

peroxynitrite = test: Models of protein nitration; format: biochemical; settings: physiological conditions (neutral pH)
Description: as §1

[4] = Log D distribution coefficient (PBS buffer/octanol); format: physicochemical
Experimental: Compound 1 has a Log D distribution coefficient at pH 7.2 of −0.07 (3 mL PBS Buffer: 1 mL Octanol) and −0.39 (2 mL PBS Buffer: 2 mL Octanol), where PBS is phosphate buffer solution.

[5] = Rat 7-day repeat dose PO study (toxicokinetics, MTD); format: in vivo; settings: 2000 mg/kg
Description: The vehicle was 0.5% HPMC.
Toxicokinetic (TK) results were as follows:

[6] = both, Sprague Dawley (Hsd:SD), rat, in vivo, po

T1 sequence (Q9NPD5 whole entry): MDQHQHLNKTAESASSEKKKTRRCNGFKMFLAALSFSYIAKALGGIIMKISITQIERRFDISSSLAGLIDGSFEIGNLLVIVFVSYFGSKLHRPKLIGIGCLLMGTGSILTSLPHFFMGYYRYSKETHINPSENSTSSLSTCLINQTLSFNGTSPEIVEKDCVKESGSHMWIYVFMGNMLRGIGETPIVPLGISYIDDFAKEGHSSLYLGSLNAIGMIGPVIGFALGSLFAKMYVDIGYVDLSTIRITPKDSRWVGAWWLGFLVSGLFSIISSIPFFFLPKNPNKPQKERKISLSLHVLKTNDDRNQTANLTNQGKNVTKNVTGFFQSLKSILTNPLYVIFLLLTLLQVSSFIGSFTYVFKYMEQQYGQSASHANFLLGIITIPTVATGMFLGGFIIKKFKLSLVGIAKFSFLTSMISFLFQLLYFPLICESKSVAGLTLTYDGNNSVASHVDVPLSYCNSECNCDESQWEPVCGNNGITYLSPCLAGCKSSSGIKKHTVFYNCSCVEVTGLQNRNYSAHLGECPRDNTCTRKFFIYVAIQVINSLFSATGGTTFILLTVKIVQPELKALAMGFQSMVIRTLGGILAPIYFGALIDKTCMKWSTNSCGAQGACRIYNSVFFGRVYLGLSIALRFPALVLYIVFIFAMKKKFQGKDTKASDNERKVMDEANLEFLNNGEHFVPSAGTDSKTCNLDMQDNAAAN

Q: Which “median t1-2” value ([1]; 10 mg/kg PO) does the source give for `CC1(C)SC(Nc2ccccc2O)=N[C@@H]1C(=O)O` [Compound 1, (R)-2-(2-hydroxyphenylamino)-5,5-dimethyl-4,5-dihydrothiazole-4-carboxylic acid mono-hydrochloride] here?
A: Its value is 1.4 h.

Q: What about the “epimerization (chiral column)” value ([1]; dog plasma) of the same molecule?
A: The value was “did not provide any evidence of epimerization”.

Q: What about the bioavailability ([1]; male, dog, plasma, oral, 10 mg/kg, read-out: mean oral bioavailability) of the same molecule?
A: Its bioavailability is 72%.

Q: What about the Tmax ([1]; male, dog, plasma, 3 mg/kg IV) of the same molecule?
A: The Tmax was roughly 0.0833 h.

Q: And the Cmax ([1]; male, dog, plasma, 10 mg/kg PO)?
A: The Cmax was 12 µg/mL.

Q: What about the Tmax ([1]; male, dog, plasma, 10 mg/kg PO) of the same molecule?
A: The Tmax was roughly 1 h.

Q: And the bioavailability ([1]; male, dog, plasma, read-out: oral bioavailability range)?
A: The bioavailability was 56 to 91%.

Q: What about the “protection from PN-mediated cytotoxicity” value (PN-mediated cytotoxicity) of the same molecule?
A: The value was “protective”.

Q: And the IC50 (OATP1B3; HEK293 cells, probe [3H]-estradiol-17β-glucuronide (0.05 μM), 0.3-600 μM tested)?
A: The IC50 was greater than 600 µM.

Q: And the “transporter inhibition” value (OATP1B3; OATP1B3)?
A: The value was “does not inhibit”.

Q: What about the STZ-induced mechanical allodynia [2] of the same molecule?
A: Its STZ-induced mechanical allodynia is “blocks STZ-induced mechanical allodynia”.

Q: And the “allodynia in models of diabetic neuropathy” value [3]?
A: Its value is “alleviates allodynia; also recorded: reverses allodynia”.

Q: What about the hyperalgesia (mouse incisional model) of the same molecule?
A: The hyperalgesia was “not hyperalgesic”.

Q: What about the “removal of peroxynitrite in models of protein nitration” value (peroxynitrite) of the same molecule?
A: Its value is “catalytically remove peroxynitrite”.

Q: And the logD ([4]; pH 7.2, pH 7.2, 2 mL PBS Buffer: 2 mL Octanol)?
A: Its logD is -0.39.

Q: And the logD ([4]; pH 7.2, pH 7.2, 3 mL PBS Buffer: 1 mL Octanol)?
A: Its logD is -0.07.

Q: What about the Cmax ([5]; both sexes, Sprague Dawley (Hsd:SD), rat, in vivo, po) of the same molecule?
A: Its Cmax is 121 µg/mL.

Q: And the AUC(0-t) ([5]; both sexes, Sprague Dawley (Hsd:SD), rat, in vivo, po, AUC0-24 (mean))?
A: Its AUC(0-t) is 1370 µg·h/mL.

Q: What about the Cmax ([5]; both sexes, Sprague Dawley (Hsd:SD), rat, in vivo, po, Seventh Daily Dose, 2000 mg/kg PO, read-out: Cmax (mean)) of the same molecule?
A: The Cmax was 119 µg/mL.

Q: And the half-life ([5]; both sexes, Sprague Dawley (Hsd:SD), rat, in vivo, po, T1/2 (mean))?
A: The half-life was 3.9 h.

Q: And the Tmax ([5]; both sexes, Sprague Dawley (Hsd:SD), rat, in vivo, po, Tmax (mean))?
A: Its Tmax is 2 h.

Q: And the MTD at 7 days ([5]; both sexes, Sprague-Dawley (Hsd:SD), rat, in vivo, oral gavage 7 days)?
A: Its MTD at 7 days is 2000 mg/kg.

Q: And the “AUC0-24 (mean)” value [5, 6]?
A: The value was 1609 µg·h/mL.

Q: And the “T1/2 (mean)” value [5, 6]?
A: The value was 6.7 h.

Q: And the “Tmax (mean)” value [5, 6]?
A: The value was 1 h.

Q: What about the tolerability ([5]; female rats, oral gavage 7 days) of the same molecule?
A: Its tolerability is “tolerated”.
